From PubChem BioAssay AID1845216 (Molecular Pharmacology Branch, DTP, NCI, 2023)
Where “and” joins values, the source holds several entries; their conditions need not be identical. Equal entries are not always repeated.

Test system: SW 982 tumor spheroid viability
Experiment: Anticancer human tumor SW 982 cell line growth inhibition;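 further: spheroids exposed to compound for 7 days before readout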
Details: spheroids with HUVEC and MSC; for viability, T/C: stronger effect = lower value
Text: Multicellular complex tumor spheroid response to DNA repair inhibitors in combination with DNA-damaging drugs
This study explores the anticancer activities of DNA-damaging drugs and inhibitors of DNA damage repair, both as single agents and in combinations. Complex tumor spheroids comprised of malignant cells, endothelial cells and mesenchymal stem cells served as an in vitro model for human solid tumors. This model system incorporates physiologically relevant features and patient-derived or established malignant cell lines with clinically relevant genetic alterations from many tumor types. Twenty-six patient-derived or established malignant cell lines were evaluated representing sarcoma, melanoma, small cell lung cancer (SCLC), non-small cell lung cancer (NSCLC), as well as bladder, ovarian and pancreatic cancers. The concentration ranges selected for each drug and investigational agent were based upon clinically achievable concentrations if the clinical Cmax of the agent was known.
Compounds. The drugs and compounds olaparib (NSC753686), talazoparib (NSC767125), berzosertib (NSC777718), elimusertib (NSC800525), nedisertib (NSC802822), VX-984 (NSC792969), AZD-1390 (NSC803789), temozolomide (NSC362856), topotecan (NSC609699), trabectedin (NSC813783), staurosporine (NSC755774), and gemcitabine (NSC613327) were obtained from the National Cancer Institute (NCI) Developmental Therapeutics Program Chemical Repository. The FDA-approved anticancer drug set is available from the Developmental Therapeutics Program at https://dtp.cancer.gov/organization/dscb/obtaining/available_plates.htm. […] The stock solutions were prepared in dimethyl sulfoxide (DMSO, Sigma-Aldrich, St. Louis, MO, cat. D2650) at 400-fold the tested concentration and stored at -70 degrees C. Prior to their use, the stock solutions were diluted in fresh medium and the final DMSO concentration in the assay was 0.25% (v/v). All drugs and investigational agents were tested over a range starting from a high concentration at or near the clinical Cmax and decreasing in half-log increments. If the clinical Cmax for an agent had not been determined, the highest concentration tested was 10 microM.
Cell Lines. The patient-derived cancer cell (PDC) lines: 156681-154-R-J1-PDC, 283228-195-R-J1-PDC, 287954-098-R-J1-PDC, 292921-168-R-J2-PDC, 349418-098-R-PDC, 425362-245-T-J1-PDC, 556581-035-R-J1-PDC, and BL0293-F563-PDC were received from the NCI Patient-Derived Models Repository (PDMR, https://pdmr.cancer.gov). The established cell lines HS-SY-2 (RRID:CVCL_8719), MPNST, and SYO-1 (RRID:CVCL_7146) were obtained from the Sloan Kettering Institute. The alveolar soft parts sarcoma cell line ASPS-1 (RRID:CVCL_S738) was established at the NCI and grown from internal seed stocks. The following established cell lines were purchased from the American Type Culture Collection (ATCC, Manassas, VA): G-401 (ATCC, cat. CRL-1441, RRID:CVCL_0270), SW982 (ATCC, cat. HTB-93, RRID:CVCL_1734), VA-ES-BJ (ATCC, cat. CRL-2138, RRID:CVCL_1785), NCI-H719 (ATCC, cat. CRL-5837, RRID:CVCL_1582), NCI-H196 (ATCC, cat. CRL-5823, RRID:CVCL_1509), NCI-H841 (ATCC, cat. CRL-5845, RRID:CVCL_1595), NCI-H1618 (ATCC, cat. CRL-5879, RRID:CVCL_1480), NCI-H1876 (ATCC, cat. CRL-5902, RRID:CVCL_1503), DMS 114 (ATCC, cat. CRL-2066; RRID:CVCL_1174), NCI-H211 (ATCC, cat. CRL-5824; RRID:CVCL_1529), and SW 1271 (ATCC, cat. CRL-2177, RRID:CVCL_1716). The small cell lung cancer cell line COR-L88 was purchased from Sigma-Aldrich (cat. 92031917-1VL, RRID:CVCL_1141). The non-small cell lung cancer cell lines NCI-H226 (RRID:CVCL_1544) and NCI-H322M (RRID:CVCL_1557) were established at the NCI and grown from internal seed stocks. Pooled donor human umbilical vein endothelial cells (HUVEC, Lonza, cat. CC-2519) and human mesenchymal stem cells (hMSC, Lonza, cat. PT-2501) were purchased from Lonza (Walkersville, MD).
Cell Culture. All cells were maintained in an incubator at 37 degrees C and 5% CO2 with 95% humidity. […]

Structure (SMILES): [2H]c1nc(C)nc([2H])c1-c1cc(NC[C@@H](C)c2cccc3c(C(=O)NC)ccnc23)ncn1
- viability, T/C (compound 0.0316 µM): 80.2% and 102% and 103%
- viability, T/C (compound 0.1 µM): 91.6% and 101% and 97.5%
- viability, T/C (compound 0.316 µM): 94% and 103% and 107%
- viability, T/C (compound 1 µM): 96.9% and 96.7% and 114%
- viability, T/C (compound 3.16 µM): 103% and 101% and 111%
- viability, T/C (compound 10 µM): 103% and 94.8% and 108%
- IC50 (curve of compound): > 10000 nM

Structure (SMILES): Cc1sc2c(c1C)C(c1ccc(Cl)cc1)=NC(CC(=O)Nc1ccc(O)cc1)c1nnc(C)n1-2 (configuration not stated) + COc1cc2c(cc1O)CCNC21CSC2c3c(OC(C)=O)c(C)c4c(c3C(COC1=O)N1C(O)C3Cc5cc(C)c(OC)c(O)c5C(C21)N3C)OCO4
- IC50 (curve of first compound, second compound 30 pM): 257 nM
- IC50 (curve of first compound, second compound 94.9 pM): 344 nM
- IC50 (curve of first compound, second compound 0.0003 µM): 482 nM
- IC50 (curve of first compound, second compound 0.000949 µM): 9.49 nM
- IC50 (curve of first compound, second compound 0.003 µM): < 9.49 nM
- viability, T/C (second compound 30 pM, first compound 0.00949 µM): 95.5%
- viability, T/C (second compound 30 pM, first compound 0.03 µM): 94.6%
- viability, T/C (second compound 30 pM, first compound 0.0949 µM): 75.5%
- viability, T/C (second compound 30 pM, first compound 0.3 µM): 46.2%
- viability, T/C (second compound 30 pM, first compound 0.949 µM): 28.5%
- viability, T/C (second compound 30 pM, first compound 3 µM): 23.6%
- viability, T/C (second compound 94.9 pM, first compound 0.00949 µM): 97.4%
- viability, T/C (second compound 94.9 pM, first compound 0.03 µM): 96.7%
- viability, T/C (second compound 94.9 pM, first compound 0.0949 µM): 71.1%
- viability, T/C (second compound 94.9 pM, first compound 0.3 µM): 53.8%
- viability, T/C (second compound 94.9 pM, first compound 0.949 µM): 33.2%
- viability, T/C (second compound 94.9 pM, first compound 3 µM): 21.6%
- viability, T/C (second compound 0.0003 µM, first compound 0.00949 µM): 76.6%
- viability, T/C (second compound 0.0003 µM, first compound 0.03 µM): 82.5%
- viability, T/C (second compound 0.0003 µM, first compound 0.0949 µM): 70.4%
- viability, T/C (second compound 0.0003 µM, first compound 0.3 µM): 68%
- viability, T/C (second compound 0.0003 µM, first compound 0.949 µM): 24.9%
- viability, T/C (second compound 0.0003 µM, first compound 3 µM): 13.6%
- viability, T/C (second compound 0.000949 µM, first compound 0.00949 µM): 41.4%
- viability, T/C (second compound 0.000949 µM, first compound 0.03 µM): 41.3%
- viability, T/C (second compound 0.000949 µM, first compound 0.0949 µM): 64.8%
- viability, T/C (second compound 0.000949 µM, first compound 0.3 µM): 19.2%
- viability, T/C (second compound 0.000949 µM, first compound 0.949 µM): 4.8%
- viability, T/C (second compound 0.000949 µM, first compound 3 µM): 3.12%
- viability, T/C (second compound 0.003 µM, first compound 0.00949 µM): 0.7%
- viability, T/C (second compound 0.003 µM, first compound 0.03 µM): 8.8%
- viability, T/C (second compound 0.003 µM, first compound 0.0949 µM): 0.33%
- viability, T/C (second compound 0.003 µM, first compound 0.3 µM): 0.26%
- viability, T/C (second compound 0.003 µM, first compound 0.949 µM): 0.37%
- viability, T/C (second compound 0.003 µM, first compound 3 µM): 0.99%
